Ki and Activity data for 18 compounds are collected here from ChEMBL document CHEMBL1131363, “Isoindolinone enantiomers having affinity for the dopamine D4 receptor” (Bioorg Med Chem Lett, 1998).

In experiment [1] the target is D(3) dopamine receptor (Homo sapiens, UniProt P35462). Put plainly: Displacement of [3H]spiperone from human Dopamine receptor D3 expressed in CHO cells. Format: cell-based. In general terms: In a radioligand displacement assay an active substance lowers the binding of a labelled ligand.
Chain of D(3) dopamine receptor (P35462 whole entry): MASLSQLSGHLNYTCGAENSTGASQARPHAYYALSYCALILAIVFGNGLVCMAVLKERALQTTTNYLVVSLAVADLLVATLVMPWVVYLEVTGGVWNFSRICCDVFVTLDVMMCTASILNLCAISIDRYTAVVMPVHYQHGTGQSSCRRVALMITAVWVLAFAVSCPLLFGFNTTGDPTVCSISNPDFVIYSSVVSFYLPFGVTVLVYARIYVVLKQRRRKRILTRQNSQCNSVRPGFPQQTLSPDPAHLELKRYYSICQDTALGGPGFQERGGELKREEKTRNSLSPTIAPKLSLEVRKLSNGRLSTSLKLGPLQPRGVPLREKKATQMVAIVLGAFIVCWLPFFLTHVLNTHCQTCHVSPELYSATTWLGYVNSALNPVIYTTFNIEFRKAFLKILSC
Experiment [2] concerns the target D(2) dopamine receptor (Homo sapiens, UniProt P14416). Put plainly: Displacement of [3H]spiperone from human Dopamine receptor D2 expressed in CHO cells. The format is cell-based.
For experiment [3], the target named is T1, 5-hydroxytryptamine receptor 1A (Mus musculus, UniProt Q64264).
T1 sequence (Q64264 whole entry): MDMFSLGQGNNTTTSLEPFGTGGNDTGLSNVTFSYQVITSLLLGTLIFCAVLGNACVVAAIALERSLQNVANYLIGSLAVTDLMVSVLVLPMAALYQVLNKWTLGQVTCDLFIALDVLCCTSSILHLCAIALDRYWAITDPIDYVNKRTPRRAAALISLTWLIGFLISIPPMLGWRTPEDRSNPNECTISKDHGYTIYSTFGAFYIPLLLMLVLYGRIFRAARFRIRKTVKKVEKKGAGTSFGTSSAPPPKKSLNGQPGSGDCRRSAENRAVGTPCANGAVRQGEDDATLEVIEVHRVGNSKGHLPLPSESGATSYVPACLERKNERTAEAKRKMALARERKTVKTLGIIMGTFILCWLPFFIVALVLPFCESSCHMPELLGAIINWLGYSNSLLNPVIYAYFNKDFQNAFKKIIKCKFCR
Briefly: In vivo binding affinity was evaluated against 5-hydroxytryptamine 1A receptor. The format is organism-based.

For experiment [4], the target named is 5-hydroxytryptamine receptor 2A (Bos taurus, UniProt Q75Z89). Put plainly: In vivo binding affinity was evaluated against 5-hydroxytryptamine 2 receptor. The format is organism-based.
Chain of 5-hydroxytryptamine receptor 2A (Q75Z89 whole entry): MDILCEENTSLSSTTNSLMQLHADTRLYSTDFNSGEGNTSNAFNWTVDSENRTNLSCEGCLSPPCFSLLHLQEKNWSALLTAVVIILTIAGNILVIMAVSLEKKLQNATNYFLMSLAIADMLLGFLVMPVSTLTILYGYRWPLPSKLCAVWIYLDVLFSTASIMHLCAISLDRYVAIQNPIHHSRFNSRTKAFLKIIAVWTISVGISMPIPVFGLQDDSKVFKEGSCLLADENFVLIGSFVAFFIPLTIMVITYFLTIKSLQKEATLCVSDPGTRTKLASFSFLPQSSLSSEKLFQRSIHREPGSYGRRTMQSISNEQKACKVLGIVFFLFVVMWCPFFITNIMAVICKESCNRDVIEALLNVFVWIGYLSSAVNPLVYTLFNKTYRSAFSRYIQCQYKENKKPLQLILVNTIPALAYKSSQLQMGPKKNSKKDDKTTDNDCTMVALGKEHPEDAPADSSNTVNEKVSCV
In experiment [5] the test system is Rattus norvegicus. Briefly: Reversal of amphetamine (at 0.5 mg/kg given intra peritoneal) stimulated locomotor activity at 3 mg/kg in rat. Format: functional.
Experiment [6] deals with T2, D(4) dopamine receptor (Homo sapiens, UniProt P21917).
T2 sequence (P21917 whole entry): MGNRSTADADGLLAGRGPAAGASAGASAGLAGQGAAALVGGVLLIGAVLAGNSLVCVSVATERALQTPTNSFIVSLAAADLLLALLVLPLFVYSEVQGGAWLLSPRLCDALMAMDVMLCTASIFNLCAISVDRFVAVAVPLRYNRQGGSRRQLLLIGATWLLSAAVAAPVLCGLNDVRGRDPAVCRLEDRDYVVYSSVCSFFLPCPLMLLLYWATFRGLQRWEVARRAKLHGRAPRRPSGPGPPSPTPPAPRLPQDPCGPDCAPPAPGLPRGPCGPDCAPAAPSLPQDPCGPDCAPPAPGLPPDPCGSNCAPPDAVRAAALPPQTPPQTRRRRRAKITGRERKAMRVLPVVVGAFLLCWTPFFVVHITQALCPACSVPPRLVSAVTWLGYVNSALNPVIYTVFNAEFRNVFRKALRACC
Briefly: In vitro binding affinity at human dopamine D4 receptor expressed in CHO cells by [3H]spiperone displacement. The format is cell-based.

Chain of D(2) dopamine receptor (P14416 whole entry): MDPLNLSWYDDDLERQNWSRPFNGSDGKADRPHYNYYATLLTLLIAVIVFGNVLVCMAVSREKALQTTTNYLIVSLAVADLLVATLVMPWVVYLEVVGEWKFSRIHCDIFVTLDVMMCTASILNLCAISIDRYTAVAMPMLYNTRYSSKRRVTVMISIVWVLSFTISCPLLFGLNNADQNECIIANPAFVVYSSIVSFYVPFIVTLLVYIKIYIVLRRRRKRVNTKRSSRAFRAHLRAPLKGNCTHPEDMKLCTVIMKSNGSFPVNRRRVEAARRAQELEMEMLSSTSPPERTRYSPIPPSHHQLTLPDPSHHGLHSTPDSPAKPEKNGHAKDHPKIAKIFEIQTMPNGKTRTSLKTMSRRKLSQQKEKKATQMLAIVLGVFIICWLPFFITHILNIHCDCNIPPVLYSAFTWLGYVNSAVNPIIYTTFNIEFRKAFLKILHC

Turning to `Cc1ccc(N2CCN(CCC3NC(=O)c4ccccc43)CC2)cc1C` (configuration not stated), the Ki in experiment [1] is 2680 nM.

Compound `Cc1ccc(C2CCN(CCC3NC(=O)c4ccccc43)CC2)cc1C` (configuration not stated) displayed a Ki in experiment [1] greater than 3000 nM.

`O=C1NC(CCN2CCN(c3ccc(Cl)cc3)CC2)c2ccccc21` (configuration not stated): the Ki is greater than 5000 nM in experiment [2] and greater than 3000 nM in experiment [1].

Turning to `Cc1ccc(N2CCN(CC[C@H]3NC(=O)c4ccccc43)CC2)cc1C`, the Ki in experiment [3] amounted to 525 nM; in experiment [4] it was 36.4 nM. In experiment [5], the Activity is reported as 8%.

Turning to `Cc1ccc(N2CCN(CCC3c4ccccc4C(=O)N3C)CC2)cc1C` (configuration not stated), the Ki in experiment [2] is greater than 5000 nM; in experiment [1], greater than 3000 nM; in experiment [6], 35.1 nM.

In experiment [6], `OCc1ccc(N2CCN(CC[C@H](O)c3ccc(Cl)cc3)CC2)cc1Cl` came in with a Ki of 8.6 nM.

`OCc1ccc(N2CCN(CCC(O)c3ccc(Cl)cc3)CC2)cc1Cl` (configuration not stated) registered a Ki in experiment [6] of 11 nM.

On to `COc1ccc(N2CCN(CCC3NC(=O)c4ccccc43)CC2)cc1` (configuration not stated), for which the Ki was greater than 5000 nM in experiment [2], greater than 3000 nM in experiment [1] and 37.3 nM in experiment [6].

For the compound `CN1C(=O)c2ccccc2C1CCN1CCN(c2ccc(Cl)cc2)CC1` (configuration not stated), the Ki in experiment [2] was greater than 5000 nM; in experiment [1], greater than 3000 nM; in experiment [6] it was 78.6 nM.

On to `Cc1ccc(N2CCN(CC[C@@H]3NC(=O)c4ccccc43)CC2)cc1C`, for which the results for the Ki in experiment [3] and in experiment [4] were 991 nM and 14.6 nM, respectively. Moreover, the Activity in experiment [5] is listed as 70%.

As for `O=C1NC(CCN2CCN(c3ccc4ccccc4c3)CC2)c2ccccc21` (configuration not stated), the values for the Ki in experiment [2], in experiment [1] and in experiment [6] were greater than 5000 nM, greater than 3000 nM and 10 nM, respectively.

In the case of `O=C(CCN1CCN(c2ccc(CO)c(Cl)c2)CC1)c1ccc(Cl)cc1`, in experiment [6], the affinity, expressed as Ki, was 60 nM.

With `Cc1ccc(N2CCN(CCC3NC(=O)c4ccccc43)CC2)cc1` (configuration not stated), the Ki in experiment [2] is greater than 5000 nM; in experiment [1] it was greater than 3000 nM.

In the case of `OCc1ccc(N2CCN(CC[C@@H](O)c3ccc(Cl)cc3)CC2)cc1Cl`, in experiment [6], the Ki was 81.4 nM.

On to `Cc1nc(N2CCN(CCC3NC(=O)c4ccccc43)CC2)sc1C` (configuration not stated), for which the Ki in experiment [2] is greater than 5000 nM; in experiment [1], greater than 3000 nM.

As for `COc1ccc(N2CCN(CCC3c4ccccc4C(=O)N3C)CC2)cc1` (configuration not stated), the Ki in experiment [2] was greater than 5000 nM; in experiment [1], greater than 3000 nM; in experiment [6], 333 nM.

With `O=C1NC(CCN2CCN(c3ccccc3)CC2)c2ccccc21` (configuration not stated), the Ki in experiment [1] turned out to be 2680 nM. This counts as single-digit micromolar.

Take `Cc1ccnc(N2CCN(CCC3NC(=O)c4ccccc43)CC2)c1` (configuration not stated): the results for the Ki in experiment [2], in experiment [1] and in experiment [6] were greater than 5000 nM, greater than 3000 nM and 22.6 nM, respectively.

The Ki is the equilibrium dissociation constant of an inhibitor or competing ligand from its target. A lower Ki goes with higher affinity.
